# From US20160095897A1 (priority 2013, published 2016)
# Like-named read-outs stand apart in the source and are kept apart here.
# Experiments:
# IAV A/PR/8/34 (H1N1) = assay type: in vivo; conditions: mice, IAV A/PR/8/34 (H1N1) 40 or 60% lethal doses, pepducin p4pal-10 10 μg
# IAV A/PR/8/34 = assay type: in vivo, mice; conditions: lethal dose
substance,measurement,setting,value
N-palmitoyl-SGRRYGHALR-NH2 (HELM PEPTIDE1{[CCCCCCCCCCCCCCCC(=O)[*:2]].S.G.R.R.Y.G.H.A.L.R.[am]}$$$$V2.0; SMILES CCCCCCCCCCCCCCCC(=O)N[C@@H](CO)C(=O)NCC(=O)N[C@@H](CCCNC(=N)N)C(=O)N[C@@H](CCCNC(=N)N)C(=O)N[C@@H](Cc1ccc(O)cc1)C(=O)NCC(=O)N[C@@H](Cc1c[nH]cn1)C(=O)N[C@@H](C)C(=O)N[C@@H](CC(C)C)C(=O)N[C@@H](CCCNC(=N)N)C(N)=O) [pepducin p4pal-10],death,IAV A/PR/8/34 (H1N1),protected mice from weight loss and death
same,weight loss,IAV A/PR/8/34 (H1N1),protected mice from weight loss
same,IL1-β level in BAL,"IAV A/PR/8/34; day 3 post-inoculation, ELISA",not at day 3
same,IL-6 level in BAL,"IAV A/PR/8/34; day 3 post-inoculation, ELISA",not at day 3
same,MIP-2 level in BAL,"IAV A/PR/8/34; day 3 post-inoculation, ELISA",not at day 3
same,level of total proteins in BAL,IAV A/PR/8/34; day 6 post-inoculation,significantly reduced
same,IFN-γ level in BAL,"IAV A/PR/8/34; day 6 post-inoculation, ELISA",significantly reduced
same,IL1-β level in BAL,"IAV A/PR/8/34; day 6 post-inoculation, ELISA",significantly reduced
same,IL-6 level in BAL,"IAV A/PR/8/34; day 6 post-inoculation, ELISA",significantly reduced
same,MIP-2 level in BAL,"IAV A/PR/8/34; day 6 post-inoculation, ELISA",significantly reduced
same,KC level in BAL,IAV A/PR/8/34; treated vs not treated,similar
same,RANTES level in BAL,IAV A/PR/8/34; treated vs not treated,similar
